Entries after “also recorded” stand apart in the source; their conditions may differ.
Tests used:
A375-WT [1] = test: Pan-Cancer PepTile/PiTile fitness screen (lentiviral 40-mer peptide library, NGS abundance); format: cell-based, human; set-up: key: enrichment of each peptide's NGS abundance, early day vs Day 14; conditions: for A375-WT Fitness Score: Pan-Cancer library, peptide enrichment day 14 vs day 0
Description: FIGS. 13A-13D show Pan-Cancer PiTile Workflow. (A) The Pan-Cancer peptide library is composed of 1081 proteins tiled into 40-mer peptides at every 6 amino acids of the parental protein. The DNA-encoded library is cloned into lentiviral vectors and packaged into lentivirus. (B) A375 cell line was transduced with the Pan-Cancer PiTile library. Genomic DNA was then harvested at Day2 and Day 14 post-transduction and cell populations abundance expressing the different peptides were quantified using Next-Generation Sequencing (NGS). Peptide fitness score was then calculated by the abundance of each peptide at Day2 versus Day 14. Then the fitness signal is mapped over the original amino acid positions of the derived protein. (C) Coverage of the plasmid Pan-Cancer library and peptide-amplicons from Day2 and Day 14 replicated was determined by NGS. (D) Dot plot of the experimental result obtain from screening the Pan-Cancer library in A375 cell line.
(§1) A peptide tilling screen was performed in A375 similarly to a screen done in MDA-MB-231 (FIG. 1) but with a different lentiviral library. The library (Pan-Cancer library) is composed of 1020 genes tiled every 6 amino acids into 40-mer amino acid long peptides. The gene selection was based on their implication in oncogenesis either being as oncogenes or tumor suppressors. The list was built using recent literature that identified new cancer drivers as well as databases such as Uniprot keywords (KW-0656: Proto-oncogene, KW-0043: Tumor suppressor), and Gene Ontology terms (GO1900117: Apoptosis, GO1901979: Cell cycle checkpoint) (FIG. 2). Aside from Human genes, a list of viral genes was also included (KW-1121: Modulation of host cell cycle by virus) that play roles in high jacking cell cycle progression and thus in oncogenesis (FIG. 2).
(§2) The model of study is melanoma, and this disease is stratified into 4 molecular subtypes, BRAF mutants, NRAS mutants, KIT amplification, NF1 mutations (FIG. 3A). The most prominent mutations found in patient affected with metastatic melanomas are BRAF^V600E and NRAS^Q61K (FIG. 3B). RAS play a key role in oncogenesis and resistance to treatments. Indeed, RAS activating mutations is found in ~20% of all human cancers and secondary NRAS mutation leads to acquired resistance to BRAF targeted therapy such as vemurafenib. Thus, the screen was performed in an A375 cell line model which derived from human BRAF^V600E melanoma as well as an engineered A375 transduced with HA-NRAS^Q61K (FIG. 4A, B). Both cell lines grow at a similar rate but the A375-NRAS^Q61K display more than 10-fold resistance to vemurafenib treatment compared to parental A375 (FIG. 4C, D).
(§3) These cells were transduced with the Pan-Cancer library at a low multiplicity of infection (MOI=0.1-0.3). Then, genomic DNA was extracted at day 0 and day 14 post-transduction to quantify the abundance of peptide for each temporal conditions using Next-generation sequencing. Each experimental replicates were deep sequenced with at least 150 million reads and show a coverage between 82-90% of the initial Pan-Cancer Peptide library (FIG. 5). Then, for each individual peptides a cellular fitness score was calculated based on their enrichment between day 0 and day 14. 8090 peptides negatively affecting growth of A375-WT were identified and 8153 peptides for the A375-NRAS^Q61K cell line (FIG. 6). […] Those common hits are found to be tiles from ~100 genes of the Pan-Cancer gene list and show a substantial biological function clustering.
We built a DNA-encoded peptide library composed of all known Human oncogenes and Tumor Suppressors that we fragmented in 40 amino acid long peptides, the Pan-Cancer library. Using lentiviral expression system, we transduced the Pan-Cancer library in A375 cell line. After 14 days of growth, the frequency of each peptide is measured by NGS and this reveal which peptides affect cell fitness. […]

A375-WT [2] = test: Validation assay: cell growth (CCK8, 48 hours after plating) of cells transduced with single peptide tiles; format: cell-based, human; conditions: peptide overexpression
Protocol: (§4) FIGS. 9A-9C. (A) Fitness screen validation assay workflow. (B) Validation assay results (C) Fitness screen results.
(§5) FIGS. 14A-14E show PiTiles derived from DNA-binding domains of MYC and SOX17 inhibit transcriptional program. (A) Experimental workflow of A375 cell line individually transduced with lentivirus expressing GFP_147, MYC_384 or SOX17_96. 5 days post-transductions, RNA was harvested for RNA sequencing. Additionally, cells were plated for a 48-hour growth assay. (B) Cell growth of A375 cell line expressing GFP_147 (control), MYC_384 and SOX17_96. […] Red bar=FDR<0.05. We observe a negative peak in bHLHzip domain of MYC as well as HMG box domain of SOX17. Both domains mediated binding to DNA. (D) Principal Component Analysis of RNA-sequencing for both biological replicates of GFP_147, MYC_384 and SOX17_96 expressing cell lines. (E) A375 RNAseq data was analyzed using Gene Set Enrichment Analysis. For MYC_384 versus GFP_147 over ODONNEL_TARGET_OF_MYC_and_TFRC. For SOX17_96 versus GFP_147 over PRANMOOJAGO_SOX4.
(§6) All those selected hits mapped to a known protein domain with known roles in protein-protein interaction or protein-DNA interaction. […] When the fold change of every tile on the protein amino acid positions was mapped, functional regions of the protein affecting cell growth were identified. For example, on RAF1, peaks corresponding to the Ras-binding domain (RBD) were identified, and the kinase domain (FIG. 8A). […] In addition, a region of MYC that affect cell growth was identified and mapped on the DNA binding domain bHLH (FIG. 8). […] To validate the results from the screen, A375-WT and -NRAS^Q61K were transduced with GFP_147, or RAF1_78, MYC_384, or KIT_499, or SOS_120 tiles and cell growth measured using CCK8 assay
(§7) 48 hours after plating (FIG. 9A). […] The CR2 domain of BRAF contain a 14-3-3 binding site and play a role in BRAF-MEK autoinhibitory complex which regulates MAPK pathway activation. One of the goals of this contextual PepTile screen was to identify peptides that would impair growth of NRAS cell line but not the parental, to address overall NRAS-driven drug resistance. For instance, more than 6000 peptide hits were detected that are exclusive to A375-NRAS^Q61K (FIG. 6). For example, ARHGAP20 and ARHGAP26 show a very different PepTile profiles between A375-NRAS^Q61K and A375-WT (FIG. 11) and seem to have more of an effect in the A375-NRAS^Q61K condition. Altogether, the Pan-Cancer PepTile screen show the potential of finding new potential peptides to target NRAS melanoma, as well as mapping protein domains involved in cellular growth in a given context.

A375-NRAS^Q61K [3] = test: Pan-Cancer PepTile fitness screen (lentiviral 40-mer peptide library, NGS abundance); format: cell-based, human; conditions: peptide enrichment day 14 vs day 0
Protocol: as §1, §2, §3

MDA-MB-231 = conditions: cited from earlier work
[4] = tested on: MYC transcriptional program (ODONNEL_TARGET_OF_MYC_and_TFRC); test: RNA-sequencing GSEA of A375 expressing MYC_384 versus GFP_147; format: cell-based, human; conditions: 5 days post-transduction
Protocol: as §5

A375-NRAS^Q61K [5] = test: Validation assay: cell growth (CCK8, 48 hours after plating) of cells transduced with single peptide tiles; format: cell-based, human; conditions: peptide overexpression
Description: as §4, §6, §7

For “MYC_65: 40-mer peptide tile of MYC, AA start position 384, bHLH domain (ELKRSFFALRDQIPELENNEKAPKVVILKKATAYILSVQA; UniProt P01106 384-423, looked up, fragment)”, the “A375-WT Fitness Score” value (A375-WT [1]) was −2.50, the “cell growth compared to GFP_147” value (A375-WT [2]; listed as MYC_384) was “cell growth defect; also recorded: decreases cell growth” and the “A375-NRAS Fitness Score” value (A375-NRAS^Q61K [3]) was −0.47. For the same substance, the “hit in previous screen” value (MDA-MB-231) was “identified and validated”, the “GSEA of MYC transcriptional program” value [4] was “downregulation of their respective transcriptional programs” and the “cell growth compared to GFP_147” value (A375-NRAS^Q61K [5]) was “not affected”.

With “SOS1_21: 40-mer peptide tile of SOS1, AA start position 120, HF domain” the “A375-WT Fitness Score” value (A375-WT [1]) was −2.56, the “cell growth compared to GFP_147” value (A375-WT [2]) was “decreases cell growth” and the “A375-NRAS Fitness Score” value (A375-NRAS^Q61K [3]) was −0.81. The “cell growth compared to GFP_147” value (A375-NRAS^Q61K [5]) was “not affected”.

For “KIT_84: 40-mer peptide tile of KIT, AA start position 498, Transmembrane domain (GKTSAYFNFAFKGNNKEQIHPHTLFTPLLIGFVIVAGMMC; UniProt P10721 498-537, looked up, fragment)”, the “A375-WT Fitness Score” value (A375-WT [1]) was −3.23, the “cell growth compared to GFP_147” value (A375-WT [2]) was “decreases cell growth” and the “A375-NRAS Fitness Score” value (A375-NRAS^Q61K [3]) was −0.77. The “cell growth compared to GFP_147” value (A375-NRAS^Q61K [5]) was “much less affected”.

In the case of “BRAF_64: 40-mer peptide tile of BRAF, AA start position 378, CR2 domain (NIDDLIRDQGFRGDGGSTTGLSATPPASLPGSLTNVKALQ; UniProt P15056 378-417, looked up, fragment)”, the “A375-WT Fitness Score” value (A375-WT [1]) is reported as −2.28 and the “A375-NRAS Fitness Score” value (A375-NRAS^Q61K [3]) is reported as −2.72.

In the case of “EP300_99: 40-mer peptide tile of EP300, AA start position 588, KIX domain”, the “A375-WT Fitness Score” value (A375-WT [1]) is reported as −3.20 and the “A375-NRAS Fitness Score” value (A375-NRAS^Q61K [3]) is reported as 0.86.

For “PIK3CA_38: 40-mer peptide tile of PIK3CA, AA start position 222, RBD (AEAIRKKTRSMLLSSEQLKLCVLEYQGKYILKVCGCDEYF; UniProt P42336 222-261, looked up, fragment)”, the “A375-WT Fitness Score” value (A375-WT [1]) was −2.72 and the “A375-NRAS Fitness Score” value (A375-NRAS^Q61K [3]) was −0.85.

In the case of “FER_38: 40-mer peptide tile of FER, AA start position 222, F-BAR domain (LKGIFDEYSQITSLVTEEIVNVHKEIQMSVEQIDPSTEYN; UniProt P16591 222-261, looked up, fragment)”, the “A375-WT Fitness Score” value (A375-WT [1]) is reported as −2.21 and the “A375-NRAS Fitness Score” value (A375-NRAS^Q61K [3]) is reported as −1.48.

In the case of “SMC3_124: 40-mer peptide tile of SMC3, AA start position 738, Coiled Coil domain (EMKMLKEKRQQSEKTFMPKQRSLQSLEASLHAMESTRESL; UniProt Q9UQE7 738-777, looked up, fragment)”, the “A375-WT Fitness Score” value (A375-WT [1]) is reported as −3.08, the Fitness score (A375-WT [1]; PanCancer Peptide Table, 40-mer peptide tile expressed from lentiviral library) is reported as −3.09 and the “A375-NRAS Fitness Score” value (A375-NRAS^Q61K [3]) is reported as 0.13.

In the case of “RAF1_14: 40-mer peptide tile of RAF1, AA start position 78, RBD (LHDCLMKALKVRGLQPECCAVFRLLHEHKGKKARLDWNTD; UniProt P04049 78-117, looked up, fragment)”, the “A375-WT Fitness Score” value (A375-WT [1]) is reported as −1.79, the “cell growth compared to GFP_147” value (A375-WT [2]) is reported as “decreases cell growth” and the “A375-NRAS Fitness Score” value (A375-NRAS^Q61K [3]) is reported as −0.50. The “hit in previous screen” value (MDA-MB-231) was “identified and validated” and the “cell growth compared to GFP_147” value (A375-NRAS^Q61K [5]) was “much less affected”.

With “ELF4_39: 40-mer peptide tile of ELF4, AA start position 228, ETS domain” the “A375-WT Fitness Score” value (A375-WT [1]) was −2.44 and the “A375-NRAS Fitness Score” value (A375-NRAS^Q61K [3]) was −1.35.

In the case of “ARID2_13: 40-mer peptide tile of ARID2, AA start position 72, ARID domain (IVEEFNFPRSCSNAAFALKQYYLRYLEKYEKVHHFGEDDD; UniProt Q68CP9 72-111, looked up, fragment)”, the “A375-WT Fitness Score” value (A375-WT [1]) is reported as −2.41 and the “A375-NRAS Fitness Score” value (A375-NRAS^Q61K [3]) is reported as 0.85.

In the case of “MTOR_42: 40-mer peptide tile of MTOR, AA start position 246, HEAT domain”, the “A375-WT Fitness Score” value (A375-WT [1]) is reported as −3.36, the Fitness score (A375-WT [1]; PanCancer Peptide Table (Table 3), lentivirally expressed 40-mer peptide tile, negative = depleted) is reported as −3.37 and the “A375-NRAS Fitness Score” value (A375-NRAS^Q61K [3]) is reported as 1.01.

For “SMARCA4_257: 40-mer peptide tile of SMARCA4, AA start position 1536, Bromodomain (AQTFNLEGSLIYEDSIVLQSVFTSVRQKIEKEDDSEGEES; UniProt P51532 1536-1575, looked up, fragment)”, the “A375-WT Fitness Score” value (A375-WT [1]) was −4.98 and the “A375-NRAS Fitness Score” value (A375-NRAS^Q61K [3]) was −0.54.

For “FZD3_55: 40-mer peptide tile of FZD3, AA start position 324, Transmembrane domain (IEKKALLFHASAWGIPGTLTIILLAMNKIEGDNISGVCFV; UniProt Q9NPG1 324-363, looked up, fragment)”, the “A375-WT Fitness Score” value (A375-WT [1]) was −3.21 and the “A375-NRAS Fitness Score” value (A375-NRAS^Q61K [3]) was −3.27.

For “CDKN2B_4: 40-mer peptide tile of CDKN2B, AA start position 18, ANK domain (LASAAARGLVEKVRQLLEAGADPNGVNRFGRRAIQVMMMG; UniProt P42772 18-57, looked up, fragment)”, the “A375-WT Fitness Score” value (A375-WT [1]) was 0.36 and the “A375-NRAS Fitness Score” value (A375-NRAS^Q61K [3]) was −3.63.
